This is an account of results in patent publication US20250281424A1 (New York Blood Center, Inc, priority 2020, published 2025).

The target of the assay is T1, human PF4 (Homo sapiens, UniProt P02776).
T1 construct: PF4 is a 70 amino acid, lysine-rich 7.8 kDa platelet-specific protein; made in house; host or cells: Escherichia coli BL21DE3 pLysS (pT7-7) and/or Drosophila S2 cells
T1 sequence (P02776 32-101): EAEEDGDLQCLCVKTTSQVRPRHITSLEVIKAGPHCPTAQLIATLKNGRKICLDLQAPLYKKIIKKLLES
The experiment in a line: Inhibition of PF4 tetramer formation (BS3 cross-linking, SDS-PAGE). In kind it is biochemical. The following applies: for inhibition at 5 µM: 5 μM inhibitor; for inhibition at 5 µM / inhibition at 10 µM / inhibition at 1 µM / inhibition at 3 µM: read-out: % inhibition of PF4 tetramer formation at single concentration of inhibitor; for inhibition at 10 µM: 10 μM inhibitor (column A); for IC50: read-out: IC50 of PF4 tetramer formation inhibition. The gist of the method: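 Recombinant human wild-type PF4 (E. coli-expressed, heparin-purified), 10 μg/ml in PBS, incubated with compound 15 min at 37° C or 60 min at room temperature, then cross-linked with 0.2 mM BS3 for 30 min at room temperature. Reducing 12% SDS-PAGE; bands quantified as % tetramer, trimer, dimer, monomer versus compound-free control.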

What is called IC50 is the concentration that inhibits the measured activity by half.

Turning to `CC(C)(C)OC(=O)N[C@@H](Cc1ccccc1)C(=O)C1C(=O)c2ccc(S(=O)(=O)c3ccc4c(c3)C(=O)C(C(=O)[C@H](Cc3ccccc3)NC(=O)OC(C)(C)C)C4=O)cc2C1=O` (stereo partly drawn) [Example 158, tert-butyl N-[(2S)-1-[5-({2-[(2S)-2-{[(tert-butoxy)carbonyl]amino}-3-phenylpropanoyl]-1,3-dioxo-2,3-dihydro-1H-inden-5-yl}sulfonyl)-1,3-dioxo-2,3-dihydro-1H-inden-2-yl]-1-oxo-3-phenylpropan-2-yl]carbamate], the inhibition at 5 µM amounted to 100%, the inhibition at 10 µM worked out at 100% and the IC50 was determined as 1.4 µM.

Consider `CCNC(=O)C1C(=O)c2ccc(S(=O)(=O)c3ccc4c(c3)C(=O)C(C(=O)NCC)C4=O)cc2C1=O` (centres unmarked) [Example 336, N-ethyl-5-{[2-(ethylcarbamoyl)-1,3-dioxo-2,3-dihydro-1H-inden-5-yl]sulfonyl}-1,3-dioxo-2,3-dihydro-1H-indene-2-carboxamide], for which, under “1 μM inhibitor”, the inhibition at 1 µM was 25%. Moreover, the inhibition at 3 µM (3 μM inhibitor (column A)) was 35%.

On to `CC(C)(C)OCC(=O)C1C(=O)c2ccc(S(=O)(=O)c3ccc4c(c3)C(=O)C(C(=O)COC(C)(C)C)C4=O)cc2C1=O` (centres unmarked) [Example 231, 2-[2-(tert-butoxy)acetyl]-5-({2-[2-(tert-butoxy)acetyl]-1,3-dioxo-2,3-dihydro-1H-inden-5-yl}sulfonyl)-2,3-dihydro-1H-indene-1,3-dione], for which the IC50 came out at 1.71 µM. The inhibition at 1 µM (1 μM inhibitor) was found to be 69%. Further, for the setting “3 μM inhibitor (column A)”, the inhibition at 3 µM worked out at 65%.

Turning to `CN(CC(=O)C1C(=O)c2ccc(C#Cc3ccc4c(c3)C(=O)C(C(=O)CN(C)C(=O)OC(C)(C)C)C4=O)cc2C1=O)C(=O)OC(C)(C)C` (centres unmarked) [Example 320, tert-butyl N-[2-(5-{2-[2-(2-{[(tert-butoxy)carbonyl](methyl)amino}acetyl)-1,3-dioxo-2,3-dihydro-1H-inden-5-yl]ethynyl}-1,3-dioxo-2,3-dihydro-1H-inden-2-yl)-2-oxoethyl]-N-methylcarbamate], the inhibition at 1 µM (1 μM inhibitor) is 12%. Besides, the inhibition at 3 µM (3 μM inhibitor (column A)) worked out at 26%.

As for `O=C(NC1CCS(=O)(=O)C1)C1C(=O)c2ccc(S(=O)(=O)c3ccc4c(c3)C(=O)C(C(=O)NC3CCS(=O)(=O)C3)C4=O)cc2C1=O` (centres unmarked) [Example 360, N-(1,1-dioxo-1λ^6-thiolan-3-yl)-5-({2-[(1,1-dioxo-1λ^6-thiolan-3-yl)carbamoyl]-1,3-dioxo-2,3-dihydro-1H-inden-5-yl}sulfonyl)-1,3-dioxo-2,3-dihydro-1H-indene-2-carboxamide], the inhibition at 1 µM (1 μM inhibitor) was 23%. Besides, where the note is “3 μM inhibitor (column A)”, the inhibition at 3 µM worked out at 59%.

Take `CC(C)OC/C(O)=C1/C(=O)c2ccc(C(=O)c3ccc4c(c3)C(=O)/C(=C(/O)COC(C)C)C4=O)cc2C1=O` [Example 380, 5-{1,3-dioxo-2-[2-(propan-2-yloxy)acetyl]-2,3-dihydro-1H-indene-5-carbonyl}-2-[2-(propan-2-yloxy)acetyl]-2,3-dihydro-1H-indene-1,3-dione]: the inhibition at 1 µM (1 μM inhibitor) turned out to be 17%. The inhibition at 3 µM (3 μM inhibitor (column A)) worked out at 30%.

As to `O=C(c1ccc2c(c1)C(=O)C(C(=O)C1CCCCC1)C2=O)c1ccc2c(c1)C(=O)C(C(=O)C1CCCCC1)C2=O` (centres unmarked) [Example 287, 2-cyclohexanecarbonyl-5-(2-cyclohexanecarbonyl-1,3-dioxo-2,3-dihydro-1H-indene-5-carbonyl)-2,3-dihydro-1H-indene-1,3-dione], the IC50 is 3 µM. For the setting “1 μM inhibitor”, the inhibition at 1 µM was determined as 5%. Where the note is “3 μM inhibitor (column A)”, the inhibition at 3 µM is 31%.

As to `O=C1CC(=O)c2cc(Oc3ccc4c(c3)C(=O)CC4=O)ccc21` [Example 7, 5-(2,3-dihydro-1,3dioxo-1h-inden-6-yloxy)-2,3-dihydro-1,3-dioxo-1h-indene], the concentration for half-maximal inhibition (IC50) was 1.12 µM.

In the case of `CO[C@@H](C(=O)C1C(=O)c2ccc(S(=O)(=O)c3ccc4c(c3)C(=O)C(C(=O)[C@H](OC)c3ccccc3)C4=O)cc2C1=O)c1ccccc1` (stereo partly drawn) [Example 136, 2-[(2R)-2-methoxy-2-phenylacetyl]-5-({2-[(2R)-2-methoxy-2-phenylacetyl]-1,3-dioxo-2,3-dihydro-1H-inden-5-yl}sulfonyl)-2,3-dihydro-1H-indene-1,3-dione], the inhibition at 5 µM was determined as 75%, the inhibition at 10 µM stood at 86% and the IC50 was 18 µM.

In the case of `CC(C)(C)OC(=O)N1CCC[C@H]1C(=O)C1C(=O)c2ccc(Oc3ccc4c(c3)C(=O)C(C(=O)[C@@H]3CCCN3C(=O)OC(C)(C)C)C4=O)cc2C1=O` (stereo partly drawn) [Example 193, tert-butyl (2S)-2-[5-({2-[(2S)-1-[(tert-butoxy)carbonyl]pyrrolidine-2-carbonyl]-1,3-dioxo-2,3-dihydro-1H-inden-5-yl}oxy)-1,3-dioxo-2,3-dihydro-1H-indene-2-carbonyl]pyrrolidine-1-carboxylate], the inhibition at 5 µM turned out to be 37% and the inhibition at 10 µM is 40%.

With `O=C(CCC(=O)C1C(=O)c2ccc(S(=O)(=O)c3ccc4c(c3)C(=O)C(C(=O)CCC(=O)c3cccc(Cl)c3Cl)C4=O)cc2C1=O)c1cccc(Cl)c1Cl` (centres unmarked) [Example 255, 2-[4-(2,3-dichlorophenyl)-4-oxobutanoyl]-5-({2-[4-(2,3-dichlorophenyl)-4-oxobutanoyl]-1,3-dioxo-2,3-dihydro-1H-inden-5-yl}sulfonyl)-2,3-dihydro-1H-indene-1,3-dione], the “% inhibition of PF4 tetramer formation at single concentration of inhibitor” value reads like this: (1 μM inhibitor, 1 µM) 9%; (3 μM inhibitor (column A), 3 µM) 51%. Further, the inhibition at 1 µM (1 μM inhibitor) was 18%. In addition, the inhibition at 3 µM (3 μM inhibitor (column A)) stood at 42%.

In the case of `COCCNC(=O)C1C(=O)c2ccc(C(=O)c3ccc4c(c3)C(=O)C(C(=O)NCCOC)C4=O)cc2C1=O` (centres unmarked) [Example 74, 5,5′-carbonylbis(n-(2-methoxyethyl)-1,3-dioxo-2,3-dihydro-1h-indene-2-carboxamide)], the inhibition at 5 µM was 19% and the inhibition at 10 µM worked out at 46%.

On to `O=C(c1ccc2c(c1)C(=O)C(C(=O)NCCCc1ccccc1)C2=O)c1ccc2c(c1)C(=O)C(C(=O)NCCCc1ccccc1)C2=O` (centres unmarked) [Example 24, 5,5′-carbonylbis(1,3-dioxo-indan-2-carboxylic acid (3-(phenyl)propyl)-amide)], for which the inhibition at 5 µM was determined as 83%, the inhibition at 10 µM was determined as 89% and the IC50 was determined as 5.11 µM.

Regarding `Cc1ccccc1C(=O)CCC(=O)C1C(=O)c2ccc(C(=O)c3ccc4c(c3)C(=O)C(C(=O)CCC(=O)c3ccccc3C)C4=O)cc2C1=O` (centres unmarked) [Example 252, 2-[4-(2-methylphenyl)-4-oxobutanoyl]-5-{2-[4-(2-methylphenyl)-4-oxobutanoyl]-1,3-dioxo-2,3-dihydro-1H-indene-5-carbonyl}-2,3-dihydro-1H-indene-1,3-dione], the IC50 came out at 3 µM. Moreover, the inhibition at 1 µM (1 μM inhibitor) came to 14%. Further, the inhibition at 3 µM (3 μM inhibitor (column A)) was determined as 37%.

With `COc1cc(CCNC(=O)C2C(=O)c3ccc(C(=O)c4ccc5c(c4)C(=O)C(C(=O)NCCc4cc(OC)cc(OC)c4)C5=O)cc3C2=O)cc(OC)c1` (centres unmarked) [Example 100, N-[2-(3,5-dimethoxyphenyl)ethyl]-5-(2-{[2-(3,5-dimethoxyphenyl)ethyl]carbamoyl}-1,3-dioxo-2,3-dihydro-1H-indene-5-carbonyl)-1,3-dioxo-2,3-dihydro-1H-indene-2-carboxamide], the IC50 is about 13 µM.

In the case of `COCCOCCC(=O)C1C(=O)c2ccc(C(=O)c3ccc4c(c3)C(=O)C(C(=O)CCOCCOC)C4=O)cc2C1=O` (centres unmarked) [Example 382, 2-[3-(2-methoxyethoxy)propanoyl]-5-{2-[3-(2-methoxyethoxy)propanoyl]-1,3-dioxo-2,3-dihydro-1H-indene-5-carbonyl}-2,3-dihydro-1H-indene-1,3-dione], the IC50 was 0.29 µM. Where the note is “1 μM inhibitor”, the inhibition at 1 µM was determined as 20%. Further, the inhibition at 3 µM (3 μM inhibitor (column A)) is 70%.

For the compound `O=C(c1ccc2c(c1)C(=O)C(C(=O)CC1CC1)C2=O)c1ccc2c(c1)C(=O)C(C(=O)CC1CC1)C2=O` (centres unmarked) [Example 140, 2-(2-cyclopropylacetyl)-5-[2-(2-cyclopropylacetyl)-1,3-dioxo-2,3-dihydro-1H-indene-5-carbonyl]-2,3-dihydro-1H-indene-1,3-dione], the inhibition at 5 µM worked out at 92%, the inhibition at 10 µM was determined as 93% and the IC50 came out at 4.7 µM.

As to `CC(=O)C1C(=O)c2cc(S(=O)(=O)c3cnc4c(c3)C(=O)C(C(C)=O)C4=O)cnc2C1=O` (centres unmarked) [Example 301, 6-acetyl-3-({6-acetyl-5,7-dioxo-5H,6H,7H-cyclopenta[b]pyridin-3-yl}sulfonyl)-5H,6H,7H-cyclopenta[b]pyridine-5,7-dione], the inhibition at 1 µM (1 μM inhibitor) worked out at 23%. Further, the inhibition at 3 µM (3 μM inhibitor (column A)) is 30%.

On to `CC(C)(C)OC(=O)N1CC[C@H]1C(=O)C1C(=O)c2ccc(Oc3ccc4c(c3)C(=O)C(C(=O)[C@@H]3CCN3C(=O)OC(C)(C)C)C4=O)cc2C1=O` (stereo partly drawn) [Example 273, tert-butyl (2S)-2-[5-({2-[(2S)-1-[(tert-butoxy)carbonyl]azetidine-2-carbonyl]-1,3-dioxo-2,3-dihydro-1H-inden-5-yl}oxy)-1,3-dioxo-2,3-dihydro-1H-indene-2-carbonyl]azetidine-1-carboxylate], for which, under “1 μM inhibitor”, the inhibition at 1 µM came out at 20%. Besides, the inhibition at 3 µM (3 μM inhibitor (column A)) was found to be 20%.

For `CC(=O)C1C(=O)c2ccc(S(=O)(=O)c3ccc4c(c3)C(=O)C(C(C)=O)C4=O)cc2C1=O` (centres unmarked) [Example 2, 5,5′-sulfonylbis(2-acetyl-1h-indene-1,3(2h)-dione)], the IC50 was determined as 18 µM.
